Values joined by “and” are separate entries in the source; they are usually repeats but may differ in a detail not shown here. Equal values may be shown once. Read-outs that look alike come from different tables or passages of the source.
What was measured:
HSV-2 = assay: Plaque reduction assay for herpes simplex viruses in Vero cells; type: cell-based, herpes simplex virus type 2; conditions: Table 2; read-out: EC-50 HSV-2
Protocol: (§1) Cell culture assays for heroes simplex viruses. Mycoplasma-free Vero cells, obtained from Flow Laboratory (McLean, Va.), were used for the plaque assays. The methodologies for the plaque reduction and cytotoxicity assays have been previously described (Schinazi et al, Antimicrob. Agents Chemother. 22, 499-507, 1982). Median-effect method. Dose-effect relationships were analyzed by the median-effect equation (Chou et al, Adv. Enz. Regul. 22, 27-55, 1984). The slope (m) and median effective and inhibitory concentration (EC50 and IC50) values were obtained by using a computer program developed by Chou and Chou (Chou et al, Elsevier-Biosoft, Elsevier Science Publishers, Cambridge, U.K., 1985).

[1] = molecular target: T1, HIV-1 reverse transcriptase (Human immunodeficiency virus type 1 group M subtype B, UniProt P04585); assay: Evaluation of compounds on purified retroviral RT (cell-free, virion-derived); type: biochemical; conditions: Table 2; read-out: EC-50 Cell-Free RT (virion-derived)
T1 construct: HIV-1 RT was isolated from detergent disrupted virions; made in house; host or cells: virions pelleted from culture fluid of HIV-1-infected PHA-stimulated human PBMC; DEAE-cellulose and phosphocellulose chromatography
Protocol: Evaluation of compounds on purified retroviral RT. HIV-1 RT was isolated from detergent disrupted virions obtained from the cell-free supernatant of infected PHA-stimulated PBMC. The enzyme was purified by passing the extract through ion-exchange chromatography columns, as described previously (Eriksson et al, Antimicrob. Agents Chemother. 31, 600-604, 1977. Briefly, 750 ml of culture fluid harvested from HIV-1-infected PBMC were ultracentrifuged to pellet the virus. The pellet was dissolved in buffer A [50 mM Tris-HCl, pH 7.9/0.25% Nonidet P-40/5 mM dithiothreitol/20% (vol/vol) glycerol] containing 1 mM EDTA, and freeze-thawed four times. After clarification by centrifugation, the enzyme was partially purified from the supernatant by passing the extract through a DEAE-cellulose column (Whatman DE-52; 2.6×15 cm) previously equilibrated with buffer B (50 mM Tris-Cl, pH 7.9, 50 mM KCl, 1 mM EDTA, 1 mM dithiothreitol, 20% glycerol). Elution was performed using a linear gradient 50-500 mM KCl in buffer B. Fractions containing enzyme activity were dialyzed against buffer B and were further purified on a phosphocellulose column (Whatman P-11) using a linear KCl (50-500 mM) gradient in buffer B. The peak fractions were pooled and dialyzed against buffer B. The enzyme was characterized as HIV-1 reverse transcriptase based on its cation, salt, pH, and template requirements according to previous descriptions (Eriksson et al, Antimicrob. Agents Chemother. 31, 600-604, 1977). The standard reaction mixture was used to evaluate the inhibitory effect of the drugs, as previously described (Eriksson et al, Antimicrob. Agents Chemother. 31, 600-604, 1977). Briefly, the reaction mixtures (final volume 100 μl) contained 100 mM Tris-HCl, pH 8.0, 50 mM KCl, 2 mM MgCl2, 5 mM DTT, 400 ug/ml bovine serum albumin, 3 μg/ml (rA)·(dT)12-18 and 1 μM of [^3H]TTP (specific activity 82.3 Ci/mmol). The reactions were started by the addition of 10 μl of partially purified RT, incubated at 37° C. for 60 min., and processed as previously described (Eriksson et al, Antimicrob. Agents Chemother. 31, 600-604, 1977).
Median-effect method. Dose-effect relationships were analyzed by the median-effect equation (Chou et al, Adv. Enz. Regul. 22, 27-55, 1984). The slope (m) and median effective and inhibitory concentration (EC50 and IC50) values were obtained by using a computer program developed by Chou and Chou (Chou et al, Elsevier-Biosoft, Elsevier Science Publishers, Cambridge, U.K., 1985).

Vero cells = assay: Cytotoxicity assay in Vero cells; type: cell-based; conditions: Table 2; >100 μM = Nontoxic; read-out: IC50 Toxicity Vero Cells
Description: Cell culture assays for heroes simplex viruses. Mycoplasma-free Vero cells, obtained from Flow Laboratory (McLean, Va.), were used for the plaque assays. The methodologies for the plaque reduction and cytotoxicity assays have been previously described (Schinazi et al, Antimicrob. Agents Chemother. 22, 499-507, 1982).

[2] = Comparison of toxicity of polyoxometalate compounds in mice (mortality, haematology); type: in vivo; conditions: BID × 6, 60 mkd i.p.; for Mortality: dead/total
Description: Comparison of Toxicity of Polyoxometalate Compounds Mice.
In vivo antiviral experiments. […] Treatment was continued daily for 6 or 10 days.

HSV-1 = assay: Plaque reduction assay for herpes simplex viruses in Vero cells; type: cell-based, herpes simplex virus type 1; conditions: Table 2; read-out: EC-50 HSV-1
Protocol: as §1

human PBM cells = assay: Cytotoxicity assay on uninfected PHA stimulated human PBMC (trypan blue); type: cell-based
Protocol: Cells. […] PBS), and pelleted at 300×g for 10 minutes. […] Cytotoxicity assay. The drugs were evaluated for their potential toxic effects on uninfected PHA stimulated human PBMC. Flasks were seeded so that the final cell concentration was 2×10^5 cells/ml. The cells were cultured with and without drug for 6 days, at which time aliquots were counted for cell viability, as assessed by the trypan blue dye-exclusion method using a hemacytometer. The median inhibitory concentration (IC50) was calculated using the median effect method (Chou et al, Elsevier-Biosoft, Elsevier Science Publishers, Cambridge, U.K., 1985; Chou et al, Adv. Enz. Regul. 22, 27-55, 1984). Median-effect method. Dose-effect relationships were analyzed by the median-effect equation (Chou et al, Adv. Enz. Regul. 22, 27-55, 1984). The slope (m) and median effective and inhibitory concentration (EC50 and IC50) values were obtained by using a computer program developed by Chou and Chou (Chou et al, Elsevier-Biosoft, Elsevier Science Publishers, Cambridge, U.K., 1985).

Friend, Spleen (EY-10) = assay: UV/XC assay for murine retroviruses in SC-1 cells; type: cell-based, murine retrovirus; conditions: Table 2; read-out: EC-50 Friend, Spleen (EY-10)
Protocol: UV/XC Assay for Murine Retroviruses Cells. Mouse embryo fibroblasts (SC-1) and XC cells were obtained from the American Type Culture Collection, Rockville, Md. The XC cell line was derived from a transplantable tumor induced in newborn White-Weston rats by the intramuscular injection of the Prague strain of Rous sarcoma virus. […] The cells were maintained in Eagle's minimum essential medium with Hanks balanced salt solution, supplemented with penicillin (100 U/ml), streptomycin (100 μg/ml), sodium bicarbonate (24 mM), Hepes (25 mM), and either 2 (maintenance) or 10 (growth) percent inactivated newborn or fetal calf serum.
Virus quantitation by UV-XC assay. The XC test (Rowe et al, Virology 42, 1136-1139, 1970) is a plaque-type of assay which tests for the presence and titer of B- and N-tropic murine leukemia viruses. Because these viruses produce no overt signs of infection of SC-1 mouse cells, it is necessary to overlay the virus producing culture with an indicator cell line, XC. The number of syncytia that are produced is a direct measure of the virus titer in FFU.
Six-well plates were seeded with 1×10^5 SC-1 mouse cells on the first day. On the following day the medium was removed and the inoculum (0.2 ml) was added in medium containing polybrene (4 μg/ml). For determining the antiviral activity of the compounds in culture, the virus dilution selected produced in untreated cultures about 80 foci per well. After 1 hour, the virus was removed and various concentrations of the drug were added. The plates were replenished with medium on the third and fifth days. The medium was removed on the eighth day and the cells exposed to UV irradiation (60 erg/mm^2 per sec) for 30 seconds. Medium containing 10^6 XC cells was then added to each plate. On the eleventh day, the plates were fixed with 10% buffered Formalin and stained with crystal violet. Comparison of the number of foci to those found in virus-infected cells receiving no drug allowed determination of whether a drug at a particular concentration was effective. Control cells without virus but receiving the drug provided an estimate of the drug's toxic effects as quantitated by using trypan blue staining.

HIV-1 (strain LAV-1) = assay: microbe, parasite or virus in culture; type: cell-based
Protocol: Cells. Human peripheral blood mononuclear cells (PBMC) from healthy HIV-1 seronegative and hepatitis B virus seronegative donors were isolated by Ficoll-Hypaque discontinuous gradient centrifugation at 1,000×g for 30 minutes, washed twice in phosphate-buffered saline (pH 7.2; PBS), and pelleted at 300×g for 10 minutes. Before infection, the cells were stimulated by phytohemagglutinin (PHA) at a concentration of 6 μg/ml for three days in RPMI 1640 medium supplemented with 15% heat-inactivated fetal calf serum, 1.5 mM L-glutamine, penicillin (100 U/ml), streptomycin (100 μg/ml), and 4mM sodium bicarbonate buffer.
Viruses. HIV-1 (strain LAV-1) was obtained from Dr. P. Feorino (Centers for Disease Control, Atlanta, Ga.). The virus was propagated in human PBMC using RPMI 1640 medium, as described previously (McDougal et al, J. Immun. Meth. 76, 171-183, 1985) without PHA and supplemented with 7% v/v interleukin-2 (Advanced Biotechnologies, Silver Spring, Md.), 7 μg/ml DEAE-dextran (Pharmacia, Uppsala, Sweden), and 370 U/ml anti-human leucocyte (alpha) interferon (ICN, Lisle, Ill.). Virus obtained from cell-free culture supernatant was titrated and stored in aliquots at −80° C. until use.
Inhibition of virus replication in human PBMC. Uninfected PHA-stimulated human PBMC were uniformly distributed among 25 cm^2 flasks to give a 5 ml suspension containing about 2×10^6 cells/ml. Suitable dilutions of virus were added to infect the cultures. The mean reverse transcriptase (RT) activity of the inocula was 50,000 decompositions per min/ml corresponding to about 100 TCID50, as determined by Groopman et al. (Groopman et al, AIDS Res. Human Retro. 3, 71-85, 1987. The drugs at twice their final concentrations in 5 ml of RPMI 1640 medium, supplemented as described above, were added to the cultures. Uninfected and untreated PBMC at equivalent cell densities were grown in parallel as controls. The cultures were maintained in a humidified 5% CO2-95% air incubator at 37° C. for six days after infection, at which point all cultures were sampled for supernatant reverse transcriptase (RT) activity.
RT activity assay. Six ml supernatant from each culture was clarified from cells at 300×g for 10 minutes. Virus particles were pelleted from 5 ml samples at 40,000 rpm for 30 minutes using a Beckman 70.1 Ti rotor and suspended in 200 μl of virus disrupting buffer (50 mM Tris-Cl, pH 7.8, 800 mM NaCl, 20% glycerol, 0.5 mM phenylmethyl sulfonyl fluoride, and 0.5% Triton X-100).
The RT assay was performed in 96-well microtiter plates, as described by Spira et al. (Spira et al, J. Clin. Microbiol. 22, 97-99, 1987). The reaction mixture, which contained 50 mM Tris-Cl pH 7.8, 9 mM MgCl2, 5 mM dithiothreitol (DTT), 4.7 μg/ml (rA)n. (dT)12-18, 140 μM dATP, and 0.22 μM [^3H]TTP, specific activity 78.0 Ci/mmol, equivalent to 17,300 cpm/pmol; NEN Research Products, Boston, Mass., was added to each well. The sample (20 μl) was added to the reaction mixture which was then incubated at 37° C. for 2 hours. The reaction was terminated by the addition of 100 μl 10% trichloroacetic acid (TCA) containing 0.45 mM sodium pyrophosphate. The acid-insoluble nucleic acids which precipitated were collected on glass filters using a Skatron semi-automatic harvester. The filters were washed with 5% TCA and 70% ethanol, dried, and placed in scintillation vials. Four ml of scintillation fluid (Econofluor, NEN Research Products, Boston, Mass.) were added and the amount of radioactivity in each sample was determined using a Packard Tri-Carb liquid scintillation analyzer (model 2,000CA). The results were expressed in dpm/ml of original clarified supernatant.
Median-effect method. Dose-effect relationships were analyzed by the median-effect equation (Chou et al, Adv. Enz. Regul. 22, 27-55, 1984).

[3] = Table 2, >100 μM = Nontoxic, read-out: IC50 Toxicity PBM Cells
[4] = Table 1, read-out: EC50 Anti-HIV-1 Activity in Human PBM Cells
[5] = Table 1, read-out: IC50 Toxicity in Human PBM Cells

Substance	EC50 (HIV-1 (strain LAV-1); [4]) [µM]	IC50 (human PBM cells; [5]) [µM]	further results
(ArgH^+)n(H^+)5-nBT, where n=1-5 [(ARGH^+)nH^+(5−n)BT]	–	–	EC50 (HSV-2): 3.16 µM; EC50 [1]: 25.4 µM; IC50 (Vero cells): > 100 µM; MDD ± St. Dev. (Mean day of death) [2]: 8.8 ± 0.45; Mortality [2]: 5/5 (100); EC50 (HSV-1): 1.35 µM; IC50 (human PBM cells; [3]): 328 µM
(HisH^+)p(H^+)4-pST, where p=1-4 [(HISH^+)nH^+(4−n)ST]	–	–	EC50 (HSV-2): 0.87 µM; EC50 [1]: 22.3 µM; IC50 (Vero cells): > 100 µM; EC50 (Friend, Spleen (EY-10)): 0.92 µM; EC50 (HSV-1): 0.95 µM; IC50 (human PBM cells; [3]): 182 µM
(NH4)5[BW12O40] [(NH4)5BT]	–	–	EC50 (HSV-2): > 10 µM; EC50 [1]: 68.1 µM; IC50 (Vero cells): > 100 µM; MDD ± St. Dev. (Mean day of death) [2]: 4.6 ± 0.89; Mortality [2]: 5/5 (100); EC50 (HIV-1 (strain LAV-1); Table 2, several values per cell, some in brackets, read-out: EC-50 HIV-1 (LAV-1)): 6.69 µM and 11.6 µM; EC50 (HSV-1): > 10 µM
(NH4)14[NaP5W30O110] [Formula 17]	0.32	7.7	–
(n-Bu4N)2Mo6O19 [Formula 16]	> 100	> 100	–
(n-Bu4N)2W6O19 [Formula 15]	–	> 100	–
H6ZnW12O40 [Formula 5]	0.9	12	–
K4W4O10(O2)6 [Formula 21]	> 50	> 100	–
K8SiW11O39 [Formula 9]	0.15	> 100	–
K10Co4(H2O)2(PW9O34)2 [Formula 12]	0.8	44	–
K10Cu4(H2O)2(PW9O34)2 [Formula 11]	4.4	> 100	–
Na6H2W12O40 [Formula 6]	0.34	> 100	–
Na7PW11O39 [Formula 8]	10.8	> 100	–
Na9HSiW9O34 [Formula 10]	2.4	> 100	–
[(DMA)2H]3PMo12O40 [Formula 7]	> 100	> 100	–
α-(n-Bu4N)4Mo8O26 [Formula 20]	55.3	> 100	–

Reference: patent US6911470B1, “Polyoxometalate compounds as antiviral agents” (priority 1988, dated 2005)
